This passage reports IC50 results from the Kinase Knowledgebase extract (Sharma et al. 2016).

As usually defined, the IC50 is the concentration at which inhibition is half-maximal. A high value points to weaker potency.

Some targets named below: PIK3CA (human) (UniProt P42336); PIK3CD (Human) (UniProt O00329); PIK3CB (Human) (UniProt P42338); PIK3CG (human) (UniProt P48736).
Common to all, as to test: Enzyme Assay

PIK3CB (Human), sequence (P42338 whole entry, looked up): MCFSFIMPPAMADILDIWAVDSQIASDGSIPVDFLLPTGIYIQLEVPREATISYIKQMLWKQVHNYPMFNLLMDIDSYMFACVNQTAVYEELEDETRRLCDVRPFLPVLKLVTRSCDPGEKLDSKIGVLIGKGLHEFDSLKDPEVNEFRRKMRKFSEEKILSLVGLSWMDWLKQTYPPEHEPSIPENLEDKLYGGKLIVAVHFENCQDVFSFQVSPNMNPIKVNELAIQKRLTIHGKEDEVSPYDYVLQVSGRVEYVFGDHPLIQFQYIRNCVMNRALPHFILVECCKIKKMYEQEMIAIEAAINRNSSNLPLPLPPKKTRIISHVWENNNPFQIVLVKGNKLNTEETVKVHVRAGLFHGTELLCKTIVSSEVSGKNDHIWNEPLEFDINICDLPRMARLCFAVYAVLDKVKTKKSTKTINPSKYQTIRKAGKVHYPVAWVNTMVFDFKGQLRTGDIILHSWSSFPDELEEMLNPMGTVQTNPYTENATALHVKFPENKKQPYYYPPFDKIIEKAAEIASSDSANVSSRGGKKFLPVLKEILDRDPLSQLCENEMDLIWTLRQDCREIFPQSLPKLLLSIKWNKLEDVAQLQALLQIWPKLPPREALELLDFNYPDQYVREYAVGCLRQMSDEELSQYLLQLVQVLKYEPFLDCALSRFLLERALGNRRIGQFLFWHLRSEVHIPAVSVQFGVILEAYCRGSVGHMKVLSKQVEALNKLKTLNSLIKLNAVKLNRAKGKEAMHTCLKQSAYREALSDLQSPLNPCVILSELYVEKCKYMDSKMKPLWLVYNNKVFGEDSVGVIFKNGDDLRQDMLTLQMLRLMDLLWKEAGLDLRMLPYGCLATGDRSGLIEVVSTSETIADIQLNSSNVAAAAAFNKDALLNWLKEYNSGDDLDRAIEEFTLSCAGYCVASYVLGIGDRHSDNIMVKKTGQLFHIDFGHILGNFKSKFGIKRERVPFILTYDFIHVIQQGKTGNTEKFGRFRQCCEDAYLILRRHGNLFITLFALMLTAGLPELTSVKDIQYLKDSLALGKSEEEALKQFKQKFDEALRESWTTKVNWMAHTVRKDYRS
PIK3CG (human), sequence (P48736 whole entry, looked up): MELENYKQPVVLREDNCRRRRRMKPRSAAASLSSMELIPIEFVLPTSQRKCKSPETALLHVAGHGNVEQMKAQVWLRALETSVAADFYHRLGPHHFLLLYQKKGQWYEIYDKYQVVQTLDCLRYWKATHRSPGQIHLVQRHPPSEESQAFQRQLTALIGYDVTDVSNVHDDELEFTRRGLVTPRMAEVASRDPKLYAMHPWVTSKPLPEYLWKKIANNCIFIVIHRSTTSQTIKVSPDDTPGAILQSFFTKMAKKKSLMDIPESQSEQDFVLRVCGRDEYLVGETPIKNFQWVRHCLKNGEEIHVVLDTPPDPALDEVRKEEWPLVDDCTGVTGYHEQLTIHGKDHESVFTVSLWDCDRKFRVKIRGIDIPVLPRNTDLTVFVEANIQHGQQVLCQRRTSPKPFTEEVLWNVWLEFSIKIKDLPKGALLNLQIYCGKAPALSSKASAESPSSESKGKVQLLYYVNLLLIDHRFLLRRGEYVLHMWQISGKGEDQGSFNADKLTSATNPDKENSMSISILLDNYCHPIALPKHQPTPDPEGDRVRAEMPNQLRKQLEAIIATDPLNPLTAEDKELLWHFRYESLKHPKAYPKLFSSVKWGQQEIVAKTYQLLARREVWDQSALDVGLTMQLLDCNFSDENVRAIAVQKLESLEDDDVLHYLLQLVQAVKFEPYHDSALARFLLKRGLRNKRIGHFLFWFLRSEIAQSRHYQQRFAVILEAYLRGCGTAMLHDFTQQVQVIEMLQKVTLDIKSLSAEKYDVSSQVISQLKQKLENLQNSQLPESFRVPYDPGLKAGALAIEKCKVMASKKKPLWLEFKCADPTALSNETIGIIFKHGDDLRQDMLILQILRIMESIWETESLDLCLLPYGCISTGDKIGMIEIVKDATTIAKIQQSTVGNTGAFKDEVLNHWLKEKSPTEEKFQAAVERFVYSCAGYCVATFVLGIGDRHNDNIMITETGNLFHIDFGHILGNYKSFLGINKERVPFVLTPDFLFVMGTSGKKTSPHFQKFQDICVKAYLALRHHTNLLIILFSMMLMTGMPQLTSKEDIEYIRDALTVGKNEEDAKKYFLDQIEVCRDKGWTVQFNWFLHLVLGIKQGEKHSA
PIK3CA (human), sequence (P42336 whole entry, looked up): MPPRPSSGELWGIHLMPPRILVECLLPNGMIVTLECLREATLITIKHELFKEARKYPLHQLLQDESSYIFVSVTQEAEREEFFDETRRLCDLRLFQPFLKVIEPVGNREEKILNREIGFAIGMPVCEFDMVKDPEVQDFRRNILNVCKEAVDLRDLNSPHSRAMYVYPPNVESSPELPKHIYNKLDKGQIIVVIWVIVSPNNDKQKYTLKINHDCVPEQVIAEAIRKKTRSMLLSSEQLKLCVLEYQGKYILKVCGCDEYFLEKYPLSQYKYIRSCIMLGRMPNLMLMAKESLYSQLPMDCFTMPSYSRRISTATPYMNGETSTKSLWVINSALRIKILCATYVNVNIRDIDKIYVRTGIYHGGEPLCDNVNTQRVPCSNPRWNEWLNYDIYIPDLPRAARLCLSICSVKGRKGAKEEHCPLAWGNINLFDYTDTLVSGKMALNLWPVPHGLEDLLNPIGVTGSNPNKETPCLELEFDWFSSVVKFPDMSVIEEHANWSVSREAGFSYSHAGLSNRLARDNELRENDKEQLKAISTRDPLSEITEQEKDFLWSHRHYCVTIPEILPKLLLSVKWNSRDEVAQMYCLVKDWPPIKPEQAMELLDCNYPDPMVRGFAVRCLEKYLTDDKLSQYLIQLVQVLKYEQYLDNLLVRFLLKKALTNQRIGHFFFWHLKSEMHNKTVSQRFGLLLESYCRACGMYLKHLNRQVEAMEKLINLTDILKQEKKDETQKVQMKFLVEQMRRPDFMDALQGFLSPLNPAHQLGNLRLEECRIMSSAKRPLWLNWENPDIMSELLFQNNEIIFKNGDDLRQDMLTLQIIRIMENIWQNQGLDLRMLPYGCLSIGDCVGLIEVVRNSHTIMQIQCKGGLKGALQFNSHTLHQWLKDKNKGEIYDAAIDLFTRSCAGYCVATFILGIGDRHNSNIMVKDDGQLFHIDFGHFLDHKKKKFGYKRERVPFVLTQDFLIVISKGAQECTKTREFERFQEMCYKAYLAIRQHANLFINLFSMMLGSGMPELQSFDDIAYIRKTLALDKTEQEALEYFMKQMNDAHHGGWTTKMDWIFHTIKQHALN
PIK3CD (Human), sequence (O00329 whole entry, looked up): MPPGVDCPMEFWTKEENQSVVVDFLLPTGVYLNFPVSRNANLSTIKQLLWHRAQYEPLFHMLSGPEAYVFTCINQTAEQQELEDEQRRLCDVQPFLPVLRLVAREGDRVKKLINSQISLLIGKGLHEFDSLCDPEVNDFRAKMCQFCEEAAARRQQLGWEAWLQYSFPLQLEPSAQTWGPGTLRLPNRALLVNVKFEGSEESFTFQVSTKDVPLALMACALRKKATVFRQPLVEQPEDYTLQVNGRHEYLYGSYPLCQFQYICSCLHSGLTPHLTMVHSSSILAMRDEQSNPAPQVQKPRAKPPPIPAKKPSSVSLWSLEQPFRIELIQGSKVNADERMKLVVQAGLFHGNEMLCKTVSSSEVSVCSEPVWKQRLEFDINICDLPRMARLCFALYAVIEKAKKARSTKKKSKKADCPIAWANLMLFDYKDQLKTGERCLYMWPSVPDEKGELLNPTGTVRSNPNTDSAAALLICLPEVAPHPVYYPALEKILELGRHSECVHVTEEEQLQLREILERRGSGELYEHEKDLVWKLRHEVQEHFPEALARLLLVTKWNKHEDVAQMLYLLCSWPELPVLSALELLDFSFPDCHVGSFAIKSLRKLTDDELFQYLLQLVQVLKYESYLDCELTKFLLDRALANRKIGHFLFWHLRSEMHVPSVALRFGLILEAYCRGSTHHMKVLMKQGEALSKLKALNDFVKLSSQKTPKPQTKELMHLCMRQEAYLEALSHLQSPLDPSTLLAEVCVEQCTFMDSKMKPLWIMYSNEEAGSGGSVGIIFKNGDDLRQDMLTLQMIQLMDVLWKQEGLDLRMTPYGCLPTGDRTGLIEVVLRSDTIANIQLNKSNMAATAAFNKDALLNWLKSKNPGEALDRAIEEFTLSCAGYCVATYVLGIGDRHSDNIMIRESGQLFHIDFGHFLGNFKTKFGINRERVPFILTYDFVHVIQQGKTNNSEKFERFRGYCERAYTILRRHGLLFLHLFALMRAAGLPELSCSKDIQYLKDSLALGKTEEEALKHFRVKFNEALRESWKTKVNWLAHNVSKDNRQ

Take `N[C@H](CC(=O)N1CCN(c2nc(N3CCOCC3)nc(-n3c(C(F)F)nc4ccccc43)n2)CC1)Cc1ccccc1`: the IC50 on PIK3CA (human) was 26 µM; at PIK3CD (Human), 2.8 µM; against PIK3CB (Human), 7.1 µM; at PIK3CG (human) it was > 100 µM.
For `CC(C)C[C@H](N)CC(=O)N1CCN(c2nc(-c3cccc(O)c3)nc(N3CCOCC3)n2)CC1`, the IC50 is 21 µM at PIK3CA (human), 9.1 µM against PIK3CD (Human), 19 µM against PIK3CB (Human) and > 100 µM against PIK3CG (human).
Regarding `NCCCC(=O)N1CCN(c2nc(N3CCOCC3)nc(-n3c(C(F)F)nc4ccccc43)n2)CC1`, the IC50 on PIK3CA (human) turned out to be 0.85 µM; at PIK3CD (Human) it was 0.077 µM; on PIK3CB (Human), 0.081 µM; on PIK3CG (human), 7.5 µM.
With `CCC(C)[C@H](N)C(=O)N1CCN(c2nc(N3CCOCC3)nc(-n3c(C(F)F)nc4ccccc43)n2)CC1` (some centres not stated), the IC50 at PIK3CD (Human) is 1 µM; at PIK3CB (Human) it was 0.067 µM; against PIK3CG (human) it was > 10 µM.
On to `N[C@@H](Cc1ccccc1)C(=O)N1CCN(c2nc(N3CCOCC3)nc(-n3c(C(F)F)nc4ccccc43)n2)CC1`, for which the IC50 against PIK3CG (human) was > 100 µM.
`C[C@H](N)CC(=O)N1CCN(c2nc(N3CCOCC3)nc(-n3c(C(F)F)nc4ccccc43)n2)CC1`: the IC50 at PIK3CA (human) came to 3 µM; against PIK3CD (Human), 0.11 µM; against PIK3CB (Human), 1.3 µM; at PIK3CG (human) it was 7.5 µM.
In the case of `O=C(C[C@H]1CCCN1)N1CCN(c2nc(-c3cccc(O)c3)nc(N3CCOCC3)n2)CC1`, the IC50 against PIK3CA (human) stood at 4.4 µM; against PIK3CD (Human) it was 0.026 µM; against PIK3CB (Human) it was 1.6 µM; against PIK3CG (human), 5.5 µM.
The matching figures for `N[C@H](CC(=O)N1CCN(c2nc(-c3cccc(O)c3)nc(N3CCOCC3)n2)CC1)Cc1ccccc1`: 62 µM, 17 µM, 1.8 µM and > 100 µM.
Turning to `N[C@H](Cc1ccccc1)C(=O)N1CCN(c2nc(N3CCOCC3)nc(-n3c(C(F)F)nc4ccccc43)n2)CC1`, the IC50 at PIK3CB (Human) was found to be 78 µM; on PIK3CG (human), 58 µM.
For `CSCC[C@H](N)C(=O)N1CCN(c2nc(N3CCOCC3)nc(-n3c(C(F)F)nc4ccccc43)n2)CC1`, the IC50 on PIK3CA (human) turned out to be 13 µM; on PIK3CD (Human), 2.95 µM; against PIK3CB (Human) it was 0.483 µM.
`O=C(C1CCNCC1)N1CCN(c2nc(-c3cccc(O)c3)nc(N3CCOCC3)n2)CC1`: the IC50 against PIK3CA (human) came to 1.5 µM; at PIK3CD (Human), 0.33 µM; against PIK3CB (Human), 3.2 µM; at PIK3CG (human) it was 6.5 µM.
`Cc1cc(C(C)Nc2ccccc2)c2nc(N3CCOCC3)cc(=O)n2c1` (configuration not stated): the results for the IC50 at PIK3CA (human) and at PIK3CD (Human) were 5.07 µM and 0.376 µM, respectively.
On to `N[C@@H](Cc1ccccc1)C(=O)N1CCN(c2nc(-c3cccc(O)c3)nc(N3CCOCC3)n2)CC1`, for which the IC50 was 19 µM at PIK3CA (human), 8.9 µM at PIK3CD (Human), 0.19 µM on PIK3CB (Human) and > 100 µM against PIK3CG (human).
For `C[C@@H](N)CC(=O)N1CCN(c2nc(-c3cccc(O)c3)nc(N3CCOCC3)n2)CC1`, the IC50 on PIK3CA (human) was 2.2 µM; against PIK3CD (Human) it was 1.3 µM; against PIK3CB (Human), 1.7 µM; on PIK3CG (human), 16 µM.
